From article PMC7857480 (The Journal of Biological Chemistry, 2020)

Molecular target: FigA (Francisella tularensis, UniProt Q15EH0)
Conditions: FigA alone; citrate, 2.25 mM ATP, 15 mM MgCl2, 50 mM HEPES pH 7.4, RT 2 h

Sequence of FigA (Q15EH0 1-639): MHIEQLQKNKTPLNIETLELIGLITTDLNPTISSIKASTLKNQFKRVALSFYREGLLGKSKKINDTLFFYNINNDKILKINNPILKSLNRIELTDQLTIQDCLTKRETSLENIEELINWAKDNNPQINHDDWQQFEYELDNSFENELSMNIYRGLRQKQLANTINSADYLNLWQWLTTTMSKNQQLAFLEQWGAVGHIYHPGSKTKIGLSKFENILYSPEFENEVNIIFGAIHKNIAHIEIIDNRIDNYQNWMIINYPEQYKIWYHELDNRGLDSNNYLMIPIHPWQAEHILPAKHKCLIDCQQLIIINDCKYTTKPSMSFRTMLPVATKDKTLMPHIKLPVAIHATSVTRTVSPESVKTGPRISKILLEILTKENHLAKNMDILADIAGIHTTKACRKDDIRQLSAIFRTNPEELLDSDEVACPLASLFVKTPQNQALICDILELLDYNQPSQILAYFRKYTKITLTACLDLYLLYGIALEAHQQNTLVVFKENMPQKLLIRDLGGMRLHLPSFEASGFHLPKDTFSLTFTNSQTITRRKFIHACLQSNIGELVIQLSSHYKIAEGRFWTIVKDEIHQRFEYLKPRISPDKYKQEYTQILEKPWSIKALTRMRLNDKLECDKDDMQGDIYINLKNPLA

Q: For `NCCC[C@H](N)C(=O)O` [L-ornithine], which “in vitro assay, LC-MS of N-citrylornithine (m/z 307.1)” value is on record?
A: FigA alone assayed with citrate and L-ornithine assay were analyzed by LC-MS
